Reference: article PMC6747070, “β-Glucose-1,6-Bisphosphate Stabilizes Pathological Phophomannomutase2 Mutants In Vitro and Represents a Lead Compound to Develop Pharmacological Chaperones for the Most Common Disorder of Glycosylation, PMM2-CDG” (International Journal of Molecular Sciences, 2019)

Experiments:
[1] = biological target: T1, PMM2 (wt-PMM2) (Homo sapiens, UniProt O15305); test: thermal shift assay (Sypro Orange); format: binding; settings: 0.5 mM ligand, without vanadate; Hepes 20 mM pH 7.5, Mg2+, NaCl, DTT
T1 construct: recombinant, vector Pet22b+, E. coli BL21(DE3), no tag mentioned; homodimer; DEAE-Sepharose and Superdex 75 purification
T1 sequence (O15305 2-246): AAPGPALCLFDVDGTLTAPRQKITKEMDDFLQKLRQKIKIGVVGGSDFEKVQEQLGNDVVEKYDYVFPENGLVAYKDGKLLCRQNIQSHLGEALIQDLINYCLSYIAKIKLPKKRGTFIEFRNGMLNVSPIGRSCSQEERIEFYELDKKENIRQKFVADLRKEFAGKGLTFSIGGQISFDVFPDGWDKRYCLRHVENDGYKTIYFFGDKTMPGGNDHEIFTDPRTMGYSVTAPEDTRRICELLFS

[2] = biological target: T1, PMM2 (wt-PMM2); test: […]-NMR phosphomannomutase assay; format: biochemical; settings: inhibitor; βG16P 5 or 50 μM; 1 mM αM1P, activator αG16P 5 μM; Hepes pH 7.3, MgCl2 1 mM, 32 °C

SMILES	dTm [1]	inhibition [2]
O=P(O)(O)O[C@H]1O[C@H](CO)[C@@H](O)[C@H](O)[C@H]1O [αG1P]	αG1P is a stabilizer of PMM2 too	
O=P(O)(O)OC[C@H]1O[C@@H](OP(=O)(O)O)[C@H](O)[C@@H](O)[C@@H]1O [βG16P]		βG16P is not an activator and show that it inhibits PMM2
